Laboratory results taken from patent publication US20240189235A1, “CATIONIC LIPIDS AND USES THEREOF” (MELLO BIOTECH TAIWAN CO., LTD., priority 2022, published 2024).

Test system: Cy5-mir302a-siRNA
Experiment: Encapsulation efficiency of LNPs for small RNAs (RiboGreen fluorescence)
Format: physicochemical
Conditions: Table 1 in words
Description: To produce the present composition, the present cationic lipids (compound 6 or 22), cholesterol, DEG-PEG 2000, and distearoylphosphatidylcholine (DSPC) were fully mixed in ethanol at a molar ratio of 50:38.5:1.5:10, and the total volume was brought to 500 μL, thereby producing a liquid formulation of lipid nanoparticles (LNPs). As for control group, D-lin-MC3-DMA (MC30), an ionizable amino lipid that conventionally used in LNPs preparation, was mixed with cholesterol, DEG-PEG 2000, and DSPC at the same molar ratio as the present LNPs. […]
The encapsulation ratio of liposomes for encapsulating miRNAs or siRNAs was determined by fluorescence reader (Infinite F200 Pro) with the aid of RNA quantification kit containing a fluorescent dye (RiboGreen). […] The cationic lipid-RNA complexes (typically with a total volume of 50 μL for each sample well) were then mixed with the reagent from the RNA quantification kit in each well. […] The amount of miRNAs or siRNAs were quantified by interpolating their […] at 535 nm to that of the standard curve, and the encapsulation efficiency (EE) was calculated by the following formula: […]
where Wt is the total amount of miRNAs or siRNAs released in the LNPs lysis suspension, and Wi is the total quantity of miRNAs or siRNAs added initially during preparation. […]

| SMILES | Liposome formation and siRNA encapsulation |
| --- | --- |
| CCCCC/C=C\C/C=C\CCCCCCCC(=O)NCC(=O)OC(COC(=O)CN)COC(=O)CN [Compound 6, 2-(2-((9Z,12Z)-octadeca-9,12-dienamido)acetoxy)propane-1,3-diyl bis(2-aminoacetate)] | successfully formed liposomes and encapsulated siRNAs therein |
| CCCCCC/C=C\CCCCCCCC(=O)NCC(=O)OCC(COC(=O)CN)OC(=O)CNC(=O)CCCCCCC/C=C\CCCCCC (centres unmarked) [Compound 22, (Z)-3-(2-aminoacetoxy)propane-1,2-diyl bis(2-((Z)-hexadec-9-enamido)acetate)] | successfully formed liposomes and encapsulated siRNAs therein |
